Read-outs that look alike come from different tables or passages of the source.
System: HIV-1 laboratory strains
Test: Laboratory strains, luciferase activity in CEM-NKR-CCR5-Luc cells
Format: cell-based
Protocol: Virus yields were measured in dose-response experiments by either luciferase activity in human T-cells (CEM-NKR-CCR5-Luc), extracellular reverse transcriptase activity in MT-2 cells (T-tropic viruses), or extracellular p24 antigen in PM1 cells (M-tropic viruses).
Multiple-cycle assays using recombinant viruses or clinical isolates were used to assess MI antiviral activity as described previously ([10]). pNLRepRlucP373S (the P373S change is in the Gag gene and converts an outlier polymorphism in the NL4-3 gene to the prevalent amino acid in the population) plasmids containing SDMs in Gag or gag/pr regions from clinical isolates were transfected into HEK 293T cells, and the supernatant containing recombinant virus was harvested after 4 to 5 days. Virus was used to infect MT-2 cells in the presence of a 3-fold serially diluted compound at a final dimethyl sulfoxide (DMSO) concentration of 1%. The inocula of the reporter viruses were determined based on the luciferase activity detected on day 4 postinfection. The MOI (ratio of infectious virions to target cells) of reporter-free laboratory strains and clinical isolates was 0.005, as derived from a tissue culture infectious dose study. Clinical isolates or reporter-free viruses were examined in the reporter CEM-NKR-CCR5-Luc cells or PBMCs at MOIs ranging from 0.005 to 0.01. Each infection started with a drug-free preincubation of the cell-virus mixtures, performed at 37°C and 5% CO2 for either 1 h at 2 times the final cell density (reporter viruses) or 1 h (reporter-free laboratory strains) or 3 h (clinical isolates) using cell pellets in 0.5 mL of medium. After preincubation, cell-virus mixtures were added to compound-containing 96-well plates for a final cell density of either 10,000 (MT-2 cells for reporter viruses), 20,000 (MT-2 and PM1 cells for reporter-free laboratory strains), 200,000 (PBMCs for clinical isolates), or 500,000 (CEM-NKR-CCR5-Luc for reporter-free laboratory strains) cells per well. The CEM-NKR-CCR5-Luc cell assay was performed in the presence of Polybrene (10 μg/mL). Virus growth was determined on days 4 to 5 postinfection for reporter variants or days 5 to 11 for the other viruses. The reporter viruses were detected by a luciferase assay according to manufacturer protocols (Brite-Glo luciferase kit [Promega] for CEM-NKR-CCR5-Luc cells and Dual-Luciferase Reporter 1000 assay system [Promega] for the other cells), and luminescence was detected on a Wallac Trilux. The growth of clinical isolates in PBMCs was quantitated by reverse transcriptase activity in a 96-well scintillation proximity assay (SPA). Twenty microliters of culture supernatants was mixed with 40 μL of reaction cocktail (62.5 mM Tris-HCl [pH 7.8], 100 mM KCl, 0.0625% NP-40, 2.5 mM dithiothreitol [DTT], 6.25 mM MgCl2, 1 mM EGTA, 6.25 μg/mL of poly rA, 2.5 μg/mL of streptavidin SPA beads prebound with biotinylated-dT12-18, and 1 μCi of [^3H]TTP). Mixtures were incubated at 37°C for ∼3 h and quenched with 100 μl of 0.25 M EDTA per well. Luminescence was detected on a Wallac Trilux programmed for tritium counting with SPA beads in opaque plates. The growth of the reporter-free laboratory M-tropic strains and clinical isolates was monitored by a p24 enzyme-linked immunosorbent assay (ELISA; PerkinElmer Life Sciences, Waltham, MA) performed on culture supernatants.
Maximal percent inhibition values were calculated as MPI = 100 – (mean signals at the 2 highest concentrations of compound/mean signal of 2 no-drug control wells) × 100.

Work on `C=C(C)[C@@H]1CC[C@]2(NCCN3CCS(=O)(=O)CC3)CC[C@]3(C)[C@H](CC[C@@H]4[C@@]5(C)CC=C(C6=CC[C@@](CF)(C(=O)O)CC6)C(C)(C)[C@@H]5CC[C@]43C)[C@@H]12` [GSK’254] yielded an EC50 (Human immunodeficiency virus 1, 8 HIV-1 laboratory strains (luciferase or p24 endpoints), read-out: mean (standard error of the mean) EC50) of 0.8 nM, an EC50 (Human immunodeficiency virus 1, 8 HIV-1 laboratory strains, read-out: EC50 range) of 0.3 to 1.2 nM and an EC50 (Human immunodeficiency virus 1, HXB2, HXB2, T tropic, read-out: EC50 ± SD) of 0.7 ± 0.1 nM. The EC50 (Human immunodeficiency virus 1, IIIB, IIIB, T tropic, read-out: EC50 ± SD) was 0.6 ± 0.4 nM, the EC50 (Human immunodeficiency virus 1, LAI, T tropic, read-out: EC50 ± SD) was 0.7 ± 0.1 nM and the EC50 (Human immunodeficiency virus 1, MN, T tropic, read-out: EC50 ± SD) was 0.3 nM. For the same compound, the EC50 (Human immunodeficiency virus 1, NL43, NL4-3, T tropic, read-out: EC50 ± SD) was 0.9 ± 0.2 nM, the EC50 (Human immunodeficiency virus 1, RF, T tropic, read-out: EC50 ± SD) was 0.9 ± 0.15 nM and the EC50 (Human immunodeficiency virus 1, reporter cell line, read-out: EC50 values for T-tropic HIV-1) was < 1 nM.
